{"source": "patent US6534523B1", "about": "“Hepatitis C inhibitor tri-peptides” (Boehringer Ingelheim (Canada) Ltd., priority 1998, dated 2003)", "target": "T1, HCV NS3 protease type 1b / NS4A cofactor peptide (Hepatitis C virus genotype 1b, UniProt P26663)", "T1 construct": "recombinant HCV NS3 protease (amino acid 1027 to 1206) was cloned in the pET11d bacterial expression vector; made in house; host or cells: E. coli BL21(DE3)pLysS", "T1 sequence (P26663 1027-1206, other chains not shown)": "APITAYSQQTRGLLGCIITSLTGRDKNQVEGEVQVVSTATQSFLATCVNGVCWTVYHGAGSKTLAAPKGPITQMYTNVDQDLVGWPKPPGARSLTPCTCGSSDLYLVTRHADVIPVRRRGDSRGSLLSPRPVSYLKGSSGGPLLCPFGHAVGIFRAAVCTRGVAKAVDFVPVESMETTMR", "experiment": "Recombinant HCV NS3 protease/NS4A cofactor peptide radiometric assay (Example 37)", "format": "biochemical, HCV genotype 1b", "method": "Recombinant HCV NS3 Protease/NS4A Cofactor Peptide Radiometric Assay\nThe enzyme was cloned, expressed and prepared according to the protocol described in Example 36. The enzyme was stored at −80° C., thawed on ice and diluted just prior to use in the assay buffer containing the NS4A cofactor peptide.\nThe substrate used for the NS3 protease/NS4A cofactor peptide radiometric assay, DDIVPC-SMSYTW, is cleaved between the cysteine and the serine residues by the enzyme. The sequence DDIVPC-SMSYTW corresponds to the NS5A/NS5B natural cleavage site in which the cysteine residue in P2 has been substituted for a proline. The peptide substrate DDIVPC-SMSYTW and the tracer biotin-DDIVPC-SMS[^125I-Y]TW are incubated with the recombinant NS3 protease and the NS4A peptide cofactor […] (molar ratio enzyme:cofactor 1:100) in the absence or presence of inhibitors. The separation of substrate from products is performed by adding avidin-coated agarose beads to the assay mixture followed by filtration. The amount of SMS[^125I-Y]TW product found in the filtrate allows for the calculation of the percentage of substrate conversion and of the percentage of inhibition.\nTris and Tris-HCl (UltraPure) were obtained from Gibco-BRL. […]\nThe filtrates were counted on a Packard TopCount instrument using a ^125I-liquid protocol for 1 minute.\nThe % inhibition was calculated with the following equation: […]", "data": [{"smiles": "C=C[C@@H]1C[C@]1(NC(=O)[C@@H]1C[C@@H](Oc2cc(-c3ccccc3)nc3cc(OC)ccc23)CN1C(=O)[C@@H](NC(=O)OC(C)(C)C)C(C)C)C(=O)O", "note": "[compound 601]", "values": [{"measurement": "IC50", "value": 50, "unit": "nM"}]}]}
